How the values were obtained:
[1] = test system: Mus musculus; assay: Antiinflammatory activity in overnight fasted Kunming mouse assessed as inhibition of xylene-induced ear swelling at 4 mg/kg, ip administered before challenge for 5 days measured 1 hr post xylene challenge; format: functional; conditions: route intraperitoneal
[2] = test system: MDA-MB-231; assay: cells; format: functional, cell-based; conditions: Homo sapiens, MDA-MB-231, 144 h
Description: Antiproliferative activity against human MDA-MB-231 cells assessed as growth inhibition after 144 hrs by crystal violet staining method

[3] = test system: HT-29; assay: cells; format: functional, cell-based; conditions: Homo sapiens, HT-29, 144 h
Description: Antiproliferative activity against human HT-29 cells assessed as growth inhibition after 144 hrs by crystal violet staining method

[4] = molecular target: T1, Prostaglandin G/H synthase 1 (Ovis aries) (UniProt P05979); assay: Inhibition of ovine COX1 at 10 uM by ELISA
T1 sequence (whole entry): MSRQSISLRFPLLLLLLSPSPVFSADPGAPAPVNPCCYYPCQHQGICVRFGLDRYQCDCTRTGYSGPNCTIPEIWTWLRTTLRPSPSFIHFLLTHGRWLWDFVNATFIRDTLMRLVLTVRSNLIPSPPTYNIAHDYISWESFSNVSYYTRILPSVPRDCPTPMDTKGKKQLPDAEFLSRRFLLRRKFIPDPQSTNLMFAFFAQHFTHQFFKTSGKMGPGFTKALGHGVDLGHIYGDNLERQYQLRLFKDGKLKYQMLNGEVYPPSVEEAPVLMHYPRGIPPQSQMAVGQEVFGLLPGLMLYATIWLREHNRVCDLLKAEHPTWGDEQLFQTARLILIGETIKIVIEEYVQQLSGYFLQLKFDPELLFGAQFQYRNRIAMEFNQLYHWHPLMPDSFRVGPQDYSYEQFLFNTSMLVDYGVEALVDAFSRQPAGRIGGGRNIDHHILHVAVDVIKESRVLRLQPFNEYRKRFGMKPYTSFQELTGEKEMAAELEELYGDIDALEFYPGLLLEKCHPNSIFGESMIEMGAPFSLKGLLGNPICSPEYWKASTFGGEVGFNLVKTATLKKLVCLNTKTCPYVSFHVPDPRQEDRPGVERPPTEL

[5] = test system: MCF7; assay: cells; format: functional, cell-based; conditions: Homo sapiens, MCF7, 144 h
Description: Antiproliferative activity against human MCF7 cells assessed as growth inhibition after 144 hrs by crystal violet staining method

[6] = test system: Mus musculus; assay: Antiinflammatory activity in overnight fasted Kunming mouse assessed as inhibition of xylene-induced ear swelling at 30 mg/kg, ip administered before challenge for 5 days measured 1 hr post xylene challenge; format: functional; conditions: route intraperitoneal

S=C(NC1CCCCC1)N1CCC(=C2c3ccc(Cl)cc3CCc3cccnc32)CC1
inhibition in vivo at 4 mg/kg [1]: 30.4% | IC50 [2]: 8.1 µM | IC50 [3]: 6.2 µM | inhibition [4]: 11.6% | IC50 [5]: 5.1 µM

Cc1ccccc1NC(=S)N1CCC(=C2c3ccc(Cl)cc3CCc3cccnc32)CC1
inhibition in vivo at 4 mg/kg [1]: 13% | IC50 [2]: 4.7 µM | IC50 [3]: 6.6 µM | IC50 [5]: 5.4 µM

CCOC(=O)N1CCC(=C2c3ccc(Cl)cc3CCc3cccnc32)CC1 [LORATADINE]
IC50 [2]: 8.4 µM | IC50 [3]: 6.2 µM | IC50 [5]: 7.5 µM

O=c1[nH]cc(F)c(=O)[nH]1 [FLUOROURACIL]
IC50 [5]: 4.7 µM

CC(=O)Oc1ccccc1C(=O)O
inhibition [4]: 29%

CNC(=S)N1CCC(=C2c3ccc(Cl)cc3CCc3cccnc32)CC1
inhibition in vivo at 4 mg/kg [1]: 26.1% | IC50 [2]: 7.1 µM | IC50 [3]: 9.6 µM | IC50 [5]: 9.4 µM

S=C(Nc1ccccc1)N1CCC(=C2c3ccc(Cl)cc3CCc3cccnc32)CC1
inhibition in vivo at 4 mg/kg [1]: 21.7% | IC50 [2]: 6.4 µM | IC50 [3]: 6.7 µM | IC50 [5]: 5.6 µM

CC(C)Cc1ccc(C(C)C(=O)O)cc1 (stereo not drawn) [IBUPROFEN]
inhibition in vivo at 4 mg/kg [1]: 8.69% | inhibition in vivo at 30 mg/kg [6]: 39.1%

COc1ccccc1NC(=S)N1CCC(=C2c3ccc(Cl)cc3CCc3cccnc32)CC1
inhibition in vivo at 4 mg/kg [1]: 21.7% | IC50 [2]: 10.4 µM | IC50 [3]: 9.2 µM | IC50 [5]: 7.6 µM

Source: ChEMBL document CHEMBL2021765, “Design and synthesis of thiourea derivatives containing a benzo[5,6]cyclohepta[1,2-b]pyridine moiety as potential antitumor and anti-inflammatory agents” (Bioorg Med Chem Lett, 2012)
